Laboratory results: patent US20240124450A1, “Novel SIK Inhibitors” (Pfizer Inc., priority 2022, published 2024)

What was measured:
SIK1 = SIK1 (Homo sapiens (Human), UniProt P57059); experiment: Pan SIK MS IC50 enzyme assay (SIK1); assay type: biochemical; conditions: 1 mM ATP, substrate peptide AQT0868, LCMS/MS detection
Description: (§1) Enzyme Assay: Pan SIK MS IC50 Assay
(§2) Salt Induced Kinase (SIK) activity is determined by measuring the effect of a test agent on the activity of the appropriate SIK enzyme to phosphorylate its corresponding substrate. […] The phosphorylated substrate product resulting from the kinase reaction is detected by LCMS/MS, and the area under the peak curve correlates with kinase activity. […] The plates are spun at 1000 rpm for 30 seconds to ensure compounds are at the bottom of the well before removing foil covers. 0.15 μL HPE (assay std) and ZPE (DMSO) are added to the ARP using an HP D300 dispenser. Plates are spun again at 1000 rpm for 30 seconds. […] Plates are spun at 1000 rpm for 30 seconds. Plates are then sealed and incubated at RT for 10 minutes. Following incubation, 5 μL of 5× peptide reagent is added with a Multidrop Combi and designated small volume cassette to initiate the kinase reaction. Plates are spun at 1000 rpm for 30 seconds. Plates are then sealed and incubated at RT for 90 minutes. The assay is stopped by the addition of 5 μl of 120 mM EDTA added with a Multidrop Combi and designated small volume cassette (20 mM final concentration). Plates are spun at 1000 rpm for 30 seconds. 10 μl of the final reaction mix from each of the three individual enzyme plates are transferred by a Platemate Plus to the same corresponding 96 well deepwell plate containing 70 μl Water/Methanol (85/15%) for multiplex MS detection ([…]). Using Activity Base (ABase), an idbs data analysis software tool, the reported area ratio unit data is associated to compound, batch and dose information, the data is evaluated for quality, and the percent inhibition of each well is calculated. The data from each Max effect/HPE and Min effect/ZPE control wells are assessed, and outliers are excluded from all further calculations. The mean and standard deviation of the HPE and ZPE are then calculated for each plate, along with the Z Prime. The compound data is converted into % effect, using the average ZPE and HPE controls as 0% and 100% activity, respectively.

SIK2 = SIK2 (Homo sapiens (Human), UniProt Q9H0K1); experiment: Pan SIK MS IC50 enzyme assay (SIK2); assay type: biochemical; conditions: 1 mM ATP, substrate peptide AQT0252, LCMS/MS detection
Description: as §1, §2

[1] = test system: IL10 release from human monocyte derived macrophages stimulated with LPS; experiment: SIK macrophage cytokine assay, increase of IL10 release; assay type: cell-based; conditions: Macrophage, 1 ng/mL LPS, 4 hours, HTRF
Description: (§3) Cytokine Assays: SIK Macrophage Assay Cytokine activity is determined by measuring the effect of a test agent on the inhibitory release of the cytokine TNFα and the increasing release of the cytokine IL10 from human monocyte derived macrophages (human macrophages) stimulated with lipopolysaccharide (LPS). At the time of assay, human macrophages (CGPS group Pfizer Groton, CT) are removed from cryopreservation, thawed quickly at 37° C., diluted in thaw medium (OptiMEM—Gibco medium, 10% heat inactivated fetal bovine serum (HIFBS)), and then centrifuged at 200×g for 10 minutes. […] After ˜60 minutes in an incubator at 37° C. in a humidified environment in 5% carbon dioxide the cells are stimulated by the addition of 5 μL of LPS (10 ng/mL; Sigma) and the assay plate is returned to an incubator at 37° C. in a humidified environment in 5% carbon dioxide for 4 hours. […] The final concentration of DMSO in the assay is approximately 0.1%. After 4 hours, the assay plate is removed from the incubator and centrifuged at 1500 rpm for 10 minutes. A portion of the resulting cell supernatant is then used to determine the amount of IL-10 and TNFα in each well. Cytokine measurements are made using human IL-10 and TNFα HTRF assay kits (Perkin Elmer) following the manufacturer's assay protocol.

[2] = test system: TNFα release from human monocyte derived macrophages stimulated with LPS; experiment: SIK macrophage cytokine assay, inhibition of TNFα release; assay type: cell-based; conditions: Macrophage, 1 ng/mL LPS, 4 hours, HTRF, read-out: TNFa IC50
Description: as §3

SIK3 = SIK3 (Homo sapiens (Human), UniProt Q9Y2K2); experiment: Pan SIK MS IC50 enzyme assay (SIK3); assay type: biochemical; conditions: 1 mM ATP, substrate peptide AQT0508, LCMS/MS detection
Description: as §1, §2

SIK3, sequence (Q9Y2K2 whole entry, species assumed): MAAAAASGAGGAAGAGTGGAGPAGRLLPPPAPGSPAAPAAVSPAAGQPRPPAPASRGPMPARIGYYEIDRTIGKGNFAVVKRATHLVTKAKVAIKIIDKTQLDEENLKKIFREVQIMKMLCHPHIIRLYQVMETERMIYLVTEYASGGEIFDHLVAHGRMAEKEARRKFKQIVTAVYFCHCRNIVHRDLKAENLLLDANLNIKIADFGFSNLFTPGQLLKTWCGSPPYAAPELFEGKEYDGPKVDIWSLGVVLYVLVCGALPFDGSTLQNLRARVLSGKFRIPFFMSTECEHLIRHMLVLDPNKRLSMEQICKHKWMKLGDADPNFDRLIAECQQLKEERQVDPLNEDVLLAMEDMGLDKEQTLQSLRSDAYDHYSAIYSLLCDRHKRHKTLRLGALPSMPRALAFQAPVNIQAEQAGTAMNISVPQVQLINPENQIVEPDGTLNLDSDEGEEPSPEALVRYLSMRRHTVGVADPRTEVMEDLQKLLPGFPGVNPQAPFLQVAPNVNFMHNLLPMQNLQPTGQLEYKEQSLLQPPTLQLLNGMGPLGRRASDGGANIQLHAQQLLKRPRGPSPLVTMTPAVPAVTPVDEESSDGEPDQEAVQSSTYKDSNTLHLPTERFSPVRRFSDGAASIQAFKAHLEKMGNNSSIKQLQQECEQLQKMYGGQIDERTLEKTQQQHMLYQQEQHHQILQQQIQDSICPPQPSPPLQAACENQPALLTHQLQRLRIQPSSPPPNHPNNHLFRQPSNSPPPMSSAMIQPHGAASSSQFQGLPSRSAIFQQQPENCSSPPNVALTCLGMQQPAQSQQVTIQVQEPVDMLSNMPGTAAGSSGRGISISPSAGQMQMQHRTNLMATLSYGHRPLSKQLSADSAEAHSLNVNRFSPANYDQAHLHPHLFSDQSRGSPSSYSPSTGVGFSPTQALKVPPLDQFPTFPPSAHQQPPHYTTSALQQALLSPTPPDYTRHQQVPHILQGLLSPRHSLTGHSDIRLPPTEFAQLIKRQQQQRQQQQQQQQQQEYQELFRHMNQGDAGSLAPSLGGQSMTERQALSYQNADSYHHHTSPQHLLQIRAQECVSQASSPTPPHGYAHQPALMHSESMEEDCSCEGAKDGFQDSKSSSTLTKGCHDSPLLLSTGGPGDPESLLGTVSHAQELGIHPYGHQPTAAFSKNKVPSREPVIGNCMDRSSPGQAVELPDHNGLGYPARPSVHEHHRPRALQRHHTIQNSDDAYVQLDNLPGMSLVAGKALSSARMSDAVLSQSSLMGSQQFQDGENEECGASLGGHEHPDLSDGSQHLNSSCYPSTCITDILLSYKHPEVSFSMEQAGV
SIK1, sequence (P57059 whole entry, species assumed): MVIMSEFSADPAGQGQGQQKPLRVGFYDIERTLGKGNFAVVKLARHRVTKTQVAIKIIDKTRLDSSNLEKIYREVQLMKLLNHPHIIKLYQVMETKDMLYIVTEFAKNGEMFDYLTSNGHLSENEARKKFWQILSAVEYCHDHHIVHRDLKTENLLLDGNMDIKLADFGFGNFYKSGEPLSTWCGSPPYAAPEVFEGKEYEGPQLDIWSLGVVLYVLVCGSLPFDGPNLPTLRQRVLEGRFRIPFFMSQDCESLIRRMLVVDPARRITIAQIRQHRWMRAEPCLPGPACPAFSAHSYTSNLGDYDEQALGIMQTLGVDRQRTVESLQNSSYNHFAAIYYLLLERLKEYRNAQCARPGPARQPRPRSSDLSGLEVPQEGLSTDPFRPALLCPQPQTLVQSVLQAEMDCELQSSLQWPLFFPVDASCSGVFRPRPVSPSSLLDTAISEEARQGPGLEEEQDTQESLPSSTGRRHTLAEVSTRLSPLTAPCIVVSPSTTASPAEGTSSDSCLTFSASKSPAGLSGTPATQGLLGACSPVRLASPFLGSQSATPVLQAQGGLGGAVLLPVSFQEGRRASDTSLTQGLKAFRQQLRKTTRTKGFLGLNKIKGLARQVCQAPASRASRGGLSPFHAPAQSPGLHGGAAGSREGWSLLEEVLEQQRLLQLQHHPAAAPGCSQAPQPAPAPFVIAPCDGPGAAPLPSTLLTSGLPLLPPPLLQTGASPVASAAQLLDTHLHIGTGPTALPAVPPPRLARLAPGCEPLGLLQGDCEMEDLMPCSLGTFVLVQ
SIK2, sequence (Q9H0K1 whole entry, species assumed): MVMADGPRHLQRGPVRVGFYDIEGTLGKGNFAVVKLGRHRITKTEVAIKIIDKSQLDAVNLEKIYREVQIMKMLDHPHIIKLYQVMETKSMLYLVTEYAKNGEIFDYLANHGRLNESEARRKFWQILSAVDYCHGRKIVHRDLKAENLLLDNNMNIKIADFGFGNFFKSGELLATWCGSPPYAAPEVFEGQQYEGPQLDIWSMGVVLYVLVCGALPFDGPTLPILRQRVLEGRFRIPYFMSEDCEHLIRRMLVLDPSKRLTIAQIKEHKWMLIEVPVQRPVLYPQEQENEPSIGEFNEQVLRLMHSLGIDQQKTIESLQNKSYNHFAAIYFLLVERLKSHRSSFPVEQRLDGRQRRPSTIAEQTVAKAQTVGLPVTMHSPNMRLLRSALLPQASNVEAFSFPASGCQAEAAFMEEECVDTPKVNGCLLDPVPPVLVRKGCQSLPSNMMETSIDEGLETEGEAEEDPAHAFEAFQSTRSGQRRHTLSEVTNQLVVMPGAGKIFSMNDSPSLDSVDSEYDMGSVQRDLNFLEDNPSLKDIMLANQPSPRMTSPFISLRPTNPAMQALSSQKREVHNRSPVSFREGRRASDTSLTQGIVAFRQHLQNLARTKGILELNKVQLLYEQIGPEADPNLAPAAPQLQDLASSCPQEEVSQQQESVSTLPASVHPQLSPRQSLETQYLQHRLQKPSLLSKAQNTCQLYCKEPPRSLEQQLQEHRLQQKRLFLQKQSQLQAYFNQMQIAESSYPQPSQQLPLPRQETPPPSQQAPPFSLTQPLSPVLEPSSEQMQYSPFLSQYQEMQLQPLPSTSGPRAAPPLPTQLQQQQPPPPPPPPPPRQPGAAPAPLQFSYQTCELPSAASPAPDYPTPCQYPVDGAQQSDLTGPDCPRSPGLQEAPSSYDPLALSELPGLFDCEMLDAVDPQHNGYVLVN

| Structure (SMILES) | IC50 (SIK1) [nM] | IC50 (SIK2) [nM] | EC50 [1] [nM] | IC50 [2] [nM] | IC50 (SIK3) [nM] |
| --- | --- | --- | --- | --- | --- |
| COc1cc(C#N)n2c(-c3cc(OCC4(N)CCCC4)c(C#N)c(SC)c3)cnc2c1 [Example 50, 3-(3-((1-Aminocyclopentyl)methoxy)-4-cyano-5-(methylthio)phenyl)-7-methoxyimidazo[1,2-a]pyridine-5-carbonitrile] | 1.2 | 0.5 | 29 | 4.2 | 0.8 |
| COc1cc(C#N)n2c(-c3cc(OCC4(N)CCCCC4)c(C#N)c(SC)c3)cnc2c1 [Example 51, 3-(3-((1-Aminocyclohexyl)methoxy)-4-cyano-5-(methylthio)phenyl)-7-methoxyimidazo[1,2-a]pyridine-5-carbonitrile] | 1.5 | 0.5 | 26 | 5.7 | 1.6 |
| CNc1ccc2ncc(-c3cc(OCC4(N)CCCC4)c(C#N)c(SC)c3)n2c1C#N [Example 53, 3-(3-((1-Aminocyclopentyl)methoxy)-4-cyano-5-(methylthio)phenyl)-6-(methylamino)imidazo[1,2-a]pyridine-5-carbonitrile] | 0.1 | 0.4 | 4 | 0.5 | 1.5 |

Continued by falling IC50 (SIK1), values first:

| IC50 (SIK1) [nM] | IC50 (SIK2) [nM] | EC50 [1] [nM] | IC50 [2] [nM] | IC50 (SIK3) [nM] | Structure (SMILES) |
| --- | --- | --- | --- | --- | --- |
| 5.1 | 1.1 | 178 | 12 | 2.1 | COc1cc(C#N)n2c(-c3cc(OC)c(C#N)c(OCC4(N)CCCCC4)c3)cnc2c1 [Example 52, 3-(3-((1-Aminocyclohexyl)methoxy)-4-cyano-5-methoxyphenyl)-7-methoxyimidazo[1,2-a]pyridine-5-carbonitrile] |
| 0.9 | 0.7 | 18 | 6.5 | 2.4 | COc1ccc2ncc(-c3cc(OCC4(N)CCCCC4)c(C#N)c(SC)c3)n2c1C#N [Example 49, 3-(3-((1-Aminocyclohexyl)methoxy)-4-cyano-5-(methylthio)phenyl)-6-methoxyimidazo[1,2-a]pyridine-5-carbonitrile] |
